Test results: patent US12227500B2, “Substituted pyrrolo[2,3-b]pyridines for suppressing toxic endoplasmic reticulum stress” (THE TRUSTEES OF COLUMBIA UNIVERSITY IN THE CITY OF NEW YORK, priority 2018, dated 2025)
Read-outs that look alike come from different tables or passages of the source.

Columns and labels:
Assay in all cases: Radiolabeled ATP kinase assay, panel of 371 kinases (Table S6)
Format in all cases: biochemical
[1] = molecular target: T1, panel of 371 human kinases (Homo sapiens, UniProt Q8IYT8); conditions: ULK2; 0.1 μM; 10 μM ATP; read-out: % Enzyme Activity (relative to DMSO controls)
T1 construct: purchased Reaction Biology Corp
Text: (§1) ; FIG. 38C). […]. Further targeted analyses, such as genetic knock-down or knock-out, may be warranted to parse the role of these additional kinases in our model of neurodegeneration.

[2] = molecular target: T2, panel of 371 human kinases (Homo sapiens, UniProt Q9UEW8); conditions: STK39/STLK3; 0.1 μM; 10 μM ATP; read-out: % Enzyme Activity (relative to DMSO controls)
T2 construct: purchased Reaction Biology Corp
Text: as §1

[3] = molecular target: T3, panel of 371 human kinases (Homo sapiens, UniProt Q99986); conditions: VRK1; 0.1 μM; 10 μM ATP; read-out: % Enzyme Activity (relative to DMSO controls)
T3 construct: purchased Reaction Biology Corp
Text: as §1

[4] = molecular target: T4, panel of 371 human kinases (Homo sapiens, UniProt Q9Y572); conditions: RIPK3; 0.1 μM; 10 μM ATP; read-out: % Enzyme Activity (relative to DMSO controls)
T4 construct: purchased Reaction Biology Corp
Text: as §1

[5] = molecular target: T5, panel of 371 human kinases (Homo sapiens, UniProt Q96KB5); conditions: PBK/TOPK; 0.1 μM; 10 μM ATP; read-out: % Enzyme Activity (relative to DMSO controls)
T5 construct: purchased Reaction Biology Corp
Text: as §1

[6] = molecular target: T6, panel of 371 human kinases (Homo sapiens, UniProt Q8NEV4); conditions: MYO3A; 0.1 μM; 10 μM ATP; read-out: % Enzyme Activity (relative to DMSO controls)
T6 construct: purchased Reaction Biology Corp
Text: as §1

[7] = molecular target: T7, panel of 371 human kinases (Homo sapiens, UniProt Q00526); conditions: 0.1 μM, 10 μM ATP, read-out: % Enzyme Activity (relative to DMSO controls)
T7 construct: purchased Reaction Biology Corp
Text: as §1

[8] = molecular target: T8, panel of 371 human kinases (Homo sapiens, UniProt Q8TDX7); conditions: NEK7; 0.1 μM; 10 μM ATP; read-out: % Enzyme Activity (relative to DMSO controls)
T8 construct: purchased Reaction Biology Corp
Text: as §1

[9] = molecular target: T9, panel of 371 human kinases (Homo sapiens, UniProt Q13627); conditions: DYRK1/DYRK1A; 0.1 μM; 10 μM ATP; read-out: % Enzyme Activity (relative to DMSO controls)
T9 construct: purchased Reaction Biology Corp
Text: as §1

[10] = molecular target: T10, panel of 371 human kinases (Homo sapiens, UniProt Q15418); conditions: RSK1; 0.1 μM; 10 μM ATP; read-out: % Enzyme Activity (relative to DMSO controls)
T10 construct: purchased Reaction Biology Corp
Text: as §1

[11] = molecular target: T11, panel of 371 human kinases (Homo sapiens, UniProt Q15835); conditions: GRK1; 0.1 μM; 10 μM ATP; read-out: % Enzyme Activity (relative to DMSO controls)
T11 construct: purchased Reaction Biology Corp
Text: as §1

[12] = molecular target: T12, panel of 371 human kinases (Homo sapiens, UniProt P05129); conditions: PKCg; 0.1 μM; 10 μM ATP; read-out: % Enzyme Activity (relative to DMSO controls)
T12 construct: purchased Reaction Biology Corp
Text: as §1

[13] = molecular target: T13, panel of 371 human kinases (Homo sapiens, UniProt Q12851); conditions: for remaining activity at 0.1 µM: GCK/MAP4K2, 10 μM ATP, read-out: % Enzyme Activity (relative to DMSO controls)
T13 construct: purchased Reaction Biology Corp
T13 sequence (Q12851 1-820): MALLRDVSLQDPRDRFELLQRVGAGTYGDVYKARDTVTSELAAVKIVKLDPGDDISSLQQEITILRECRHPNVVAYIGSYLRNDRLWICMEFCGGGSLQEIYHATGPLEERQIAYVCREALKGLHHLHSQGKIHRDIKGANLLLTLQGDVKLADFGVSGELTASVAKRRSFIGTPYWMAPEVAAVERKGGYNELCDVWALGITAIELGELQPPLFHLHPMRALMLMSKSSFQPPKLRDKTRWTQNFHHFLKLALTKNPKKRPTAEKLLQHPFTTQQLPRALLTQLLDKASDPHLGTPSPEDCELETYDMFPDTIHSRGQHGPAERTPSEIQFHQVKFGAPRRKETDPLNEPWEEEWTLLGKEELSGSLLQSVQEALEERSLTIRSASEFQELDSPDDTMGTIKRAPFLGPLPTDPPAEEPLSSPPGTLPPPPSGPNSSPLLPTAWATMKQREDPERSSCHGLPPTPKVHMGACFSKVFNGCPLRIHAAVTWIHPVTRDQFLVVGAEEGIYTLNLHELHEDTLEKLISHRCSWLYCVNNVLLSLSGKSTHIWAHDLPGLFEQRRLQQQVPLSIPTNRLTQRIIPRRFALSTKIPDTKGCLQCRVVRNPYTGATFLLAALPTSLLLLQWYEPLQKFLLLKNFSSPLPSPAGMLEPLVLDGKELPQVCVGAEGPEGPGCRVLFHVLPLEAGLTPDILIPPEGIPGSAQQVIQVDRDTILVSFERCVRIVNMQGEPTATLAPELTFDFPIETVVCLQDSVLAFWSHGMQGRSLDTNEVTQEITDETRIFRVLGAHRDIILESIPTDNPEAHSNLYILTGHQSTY
Text: as §1

[14] = molecular target: T14, panel of 371 human kinases (Homo sapiens, UniProt Q16288); conditions: TRKC; 0.1 μM; 10 μM ATP; read-out: % Enzyme Activity (relative to DMSO controls)
T14 construct: purchased Reaction Biology Corp
Text: as §1

[15] = molecular target: T15, panel of 371 human kinases (Homo sapiens, UniProt P06241); conditions: FYN; 0.1 μM; 10 μM ATP; read-out: % Enzyme Activity (relative to DMSO controls)
T15 construct: purchased Reaction Biology Corp
Text: as §1

[16] = molecular target: T16, panel of 371 human kinases (Homo sapiens, UniProt Q8N4C8); conditions: for remaining activity at 0.1 µM: MINK/MINK1, 10 μM ATP, read-out: % Enzyme Activity (relative to DMSO controls)
T16 construct: purchased Reaction Biology Corp
Text: as §1

[17] = molecular target: T17, panel of 371 human kinases (Homo sapiens, UniProt P06493); conditions: 0.1 μM, 10 μM ATP, read-out: % Enzyme Activity (relative to DMSO controls)
T17 construct: purchased Reaction Biology Corp
Text: as §1

[18] = molecular target: T18, panel of 371 human kinases (Homo sapiens, UniProt Q9H2G2); conditions: SLK/STK2; 0.1 μM; 10 μM ATP; read-out: % Enzyme Activity (relative to DMSO controls)
T18 construct: purchased Reaction Biology Corp
Text: as §1

T16 sequence (Q8N4C8 whole entry): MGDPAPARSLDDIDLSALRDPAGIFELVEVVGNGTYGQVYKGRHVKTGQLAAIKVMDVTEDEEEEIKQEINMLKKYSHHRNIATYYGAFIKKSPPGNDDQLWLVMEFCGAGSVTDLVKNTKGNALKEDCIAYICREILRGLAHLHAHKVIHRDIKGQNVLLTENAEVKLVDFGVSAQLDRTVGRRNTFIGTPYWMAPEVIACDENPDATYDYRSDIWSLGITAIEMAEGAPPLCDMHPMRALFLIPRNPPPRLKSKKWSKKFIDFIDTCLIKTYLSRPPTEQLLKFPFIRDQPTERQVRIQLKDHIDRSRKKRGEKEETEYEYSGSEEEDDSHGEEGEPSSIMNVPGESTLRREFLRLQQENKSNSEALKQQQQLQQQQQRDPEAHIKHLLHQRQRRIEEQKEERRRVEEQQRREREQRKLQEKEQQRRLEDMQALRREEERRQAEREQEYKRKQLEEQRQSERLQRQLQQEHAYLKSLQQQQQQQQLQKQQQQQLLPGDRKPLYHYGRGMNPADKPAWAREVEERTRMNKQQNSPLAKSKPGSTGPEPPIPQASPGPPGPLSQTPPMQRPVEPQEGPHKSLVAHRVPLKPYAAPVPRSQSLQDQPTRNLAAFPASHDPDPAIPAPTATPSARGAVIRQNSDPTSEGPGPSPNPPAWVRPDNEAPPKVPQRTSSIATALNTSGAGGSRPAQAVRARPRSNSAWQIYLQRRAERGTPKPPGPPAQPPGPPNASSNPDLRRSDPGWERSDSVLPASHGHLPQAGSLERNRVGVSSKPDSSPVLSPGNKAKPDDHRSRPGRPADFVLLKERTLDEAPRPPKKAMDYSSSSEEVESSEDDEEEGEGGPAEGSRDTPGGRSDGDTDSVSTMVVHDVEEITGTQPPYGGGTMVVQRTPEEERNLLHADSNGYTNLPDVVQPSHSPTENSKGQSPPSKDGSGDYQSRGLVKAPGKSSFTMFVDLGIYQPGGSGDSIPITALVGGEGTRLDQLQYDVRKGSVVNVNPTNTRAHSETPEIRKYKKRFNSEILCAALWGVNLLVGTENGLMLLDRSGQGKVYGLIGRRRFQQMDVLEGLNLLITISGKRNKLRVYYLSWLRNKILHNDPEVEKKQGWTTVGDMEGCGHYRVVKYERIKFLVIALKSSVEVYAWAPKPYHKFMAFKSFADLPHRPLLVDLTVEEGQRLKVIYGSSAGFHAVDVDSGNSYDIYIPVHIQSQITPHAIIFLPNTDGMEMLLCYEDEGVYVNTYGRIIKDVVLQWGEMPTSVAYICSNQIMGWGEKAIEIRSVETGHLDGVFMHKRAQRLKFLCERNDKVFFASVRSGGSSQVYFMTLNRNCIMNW
T7 sequence (Q00526 whole entry): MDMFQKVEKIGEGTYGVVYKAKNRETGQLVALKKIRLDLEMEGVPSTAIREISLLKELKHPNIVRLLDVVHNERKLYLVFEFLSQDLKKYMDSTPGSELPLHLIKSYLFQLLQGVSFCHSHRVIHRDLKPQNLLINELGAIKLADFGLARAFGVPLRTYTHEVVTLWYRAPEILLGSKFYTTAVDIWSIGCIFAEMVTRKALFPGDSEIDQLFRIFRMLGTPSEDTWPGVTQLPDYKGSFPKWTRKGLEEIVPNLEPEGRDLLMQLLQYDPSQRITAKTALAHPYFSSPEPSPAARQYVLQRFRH
T17 sequence (P06493 whole entry): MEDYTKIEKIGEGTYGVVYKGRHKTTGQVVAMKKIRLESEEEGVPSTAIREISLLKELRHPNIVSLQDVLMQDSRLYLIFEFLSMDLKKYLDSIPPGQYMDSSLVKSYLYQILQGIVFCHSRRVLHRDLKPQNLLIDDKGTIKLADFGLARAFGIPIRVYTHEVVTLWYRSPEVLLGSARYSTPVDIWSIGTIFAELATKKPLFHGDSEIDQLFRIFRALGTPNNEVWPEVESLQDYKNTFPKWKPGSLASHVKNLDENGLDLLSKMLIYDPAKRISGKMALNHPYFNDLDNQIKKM
T15 sequence (P06241 whole entry): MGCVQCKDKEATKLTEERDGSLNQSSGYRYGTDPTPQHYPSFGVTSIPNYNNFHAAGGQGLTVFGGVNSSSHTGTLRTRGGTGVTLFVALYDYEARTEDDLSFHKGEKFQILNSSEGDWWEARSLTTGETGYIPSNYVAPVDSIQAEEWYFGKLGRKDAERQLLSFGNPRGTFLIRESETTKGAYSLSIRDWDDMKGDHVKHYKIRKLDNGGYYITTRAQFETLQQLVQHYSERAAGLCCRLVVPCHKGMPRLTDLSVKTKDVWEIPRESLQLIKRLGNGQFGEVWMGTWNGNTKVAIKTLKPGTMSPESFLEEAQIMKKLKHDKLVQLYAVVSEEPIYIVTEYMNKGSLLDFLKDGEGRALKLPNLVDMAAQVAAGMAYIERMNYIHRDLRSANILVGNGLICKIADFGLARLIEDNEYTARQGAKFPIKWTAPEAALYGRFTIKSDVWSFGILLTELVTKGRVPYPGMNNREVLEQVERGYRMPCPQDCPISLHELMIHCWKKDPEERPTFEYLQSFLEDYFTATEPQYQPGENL
T3 sequence (Q99986 whole entry): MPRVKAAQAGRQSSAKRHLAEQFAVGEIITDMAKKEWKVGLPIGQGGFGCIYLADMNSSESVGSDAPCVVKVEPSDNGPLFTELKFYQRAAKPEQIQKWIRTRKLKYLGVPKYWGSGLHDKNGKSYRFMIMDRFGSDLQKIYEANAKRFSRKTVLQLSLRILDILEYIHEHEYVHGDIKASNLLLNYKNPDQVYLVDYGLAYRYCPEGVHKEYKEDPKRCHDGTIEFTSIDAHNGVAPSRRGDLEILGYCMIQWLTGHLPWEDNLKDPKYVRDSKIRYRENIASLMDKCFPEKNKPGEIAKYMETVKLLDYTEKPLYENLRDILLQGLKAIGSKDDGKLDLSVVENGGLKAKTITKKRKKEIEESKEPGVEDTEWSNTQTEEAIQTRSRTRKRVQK
T8 sequence (Q8TDX7 whole entry): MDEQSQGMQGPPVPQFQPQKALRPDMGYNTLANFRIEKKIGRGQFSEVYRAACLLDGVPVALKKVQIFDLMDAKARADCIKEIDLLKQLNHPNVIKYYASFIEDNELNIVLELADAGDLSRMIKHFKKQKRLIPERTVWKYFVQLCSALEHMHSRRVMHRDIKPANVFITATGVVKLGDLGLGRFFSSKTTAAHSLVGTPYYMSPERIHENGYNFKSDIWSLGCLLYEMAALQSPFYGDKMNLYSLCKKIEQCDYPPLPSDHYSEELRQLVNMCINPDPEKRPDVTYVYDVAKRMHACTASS
T4 sequence (Q9Y572 whole entry): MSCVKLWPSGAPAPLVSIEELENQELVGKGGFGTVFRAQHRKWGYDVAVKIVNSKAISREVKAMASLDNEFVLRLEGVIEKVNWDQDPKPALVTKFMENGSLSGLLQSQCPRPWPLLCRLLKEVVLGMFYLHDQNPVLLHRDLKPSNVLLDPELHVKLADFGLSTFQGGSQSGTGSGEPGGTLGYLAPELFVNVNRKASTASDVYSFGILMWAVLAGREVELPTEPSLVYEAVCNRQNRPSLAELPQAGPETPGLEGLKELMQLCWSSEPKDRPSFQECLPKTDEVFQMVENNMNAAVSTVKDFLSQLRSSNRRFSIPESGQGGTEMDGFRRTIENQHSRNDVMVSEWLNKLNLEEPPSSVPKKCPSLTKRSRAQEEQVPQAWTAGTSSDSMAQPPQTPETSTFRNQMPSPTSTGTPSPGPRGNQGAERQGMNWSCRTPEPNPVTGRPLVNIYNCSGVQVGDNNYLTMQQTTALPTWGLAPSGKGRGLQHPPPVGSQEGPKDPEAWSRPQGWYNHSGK
T14 sequence (Q16288 32-839): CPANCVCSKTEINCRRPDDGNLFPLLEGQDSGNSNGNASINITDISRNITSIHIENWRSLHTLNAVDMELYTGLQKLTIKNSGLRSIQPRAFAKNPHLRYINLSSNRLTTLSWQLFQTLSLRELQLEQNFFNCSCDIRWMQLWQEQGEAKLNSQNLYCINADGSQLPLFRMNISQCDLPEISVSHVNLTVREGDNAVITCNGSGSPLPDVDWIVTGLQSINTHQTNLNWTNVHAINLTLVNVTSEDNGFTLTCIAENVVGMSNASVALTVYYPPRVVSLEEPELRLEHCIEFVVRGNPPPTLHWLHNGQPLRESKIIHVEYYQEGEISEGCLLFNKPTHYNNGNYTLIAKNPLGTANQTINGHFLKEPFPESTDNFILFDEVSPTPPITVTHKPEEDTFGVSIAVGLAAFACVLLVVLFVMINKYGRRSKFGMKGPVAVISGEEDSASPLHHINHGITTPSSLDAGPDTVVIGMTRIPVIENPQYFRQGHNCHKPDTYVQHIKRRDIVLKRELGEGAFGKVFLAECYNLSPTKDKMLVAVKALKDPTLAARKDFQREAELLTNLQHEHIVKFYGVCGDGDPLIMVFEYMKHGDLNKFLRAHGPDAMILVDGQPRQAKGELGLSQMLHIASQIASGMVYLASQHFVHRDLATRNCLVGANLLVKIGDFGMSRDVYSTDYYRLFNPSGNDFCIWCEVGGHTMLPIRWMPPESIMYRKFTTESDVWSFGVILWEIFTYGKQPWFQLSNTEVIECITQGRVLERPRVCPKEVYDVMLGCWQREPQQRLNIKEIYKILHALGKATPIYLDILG
T5 sequence (Q96KB5 whole entry): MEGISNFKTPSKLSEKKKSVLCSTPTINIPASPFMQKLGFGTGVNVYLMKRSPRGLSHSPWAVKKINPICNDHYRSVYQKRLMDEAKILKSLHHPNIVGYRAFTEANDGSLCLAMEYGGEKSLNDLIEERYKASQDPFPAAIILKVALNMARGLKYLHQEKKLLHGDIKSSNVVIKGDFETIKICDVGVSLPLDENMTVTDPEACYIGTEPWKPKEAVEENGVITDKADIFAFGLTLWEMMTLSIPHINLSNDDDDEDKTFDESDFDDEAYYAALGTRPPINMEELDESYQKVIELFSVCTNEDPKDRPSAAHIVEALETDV

Structure (SMILES) | remaining activity at 0.1 µM [1] [%] | remaining activity at 0.1 µM [2] [%] | remaining activity at 0.1 µM [3] [%] | remaining activity at 0.1 µM [4] [%] | remaining activity at 0.1 µM [5] [%] | remaining activity at 0.1 µM [6] [%] | remaining activity at 0.1 µM ([7]; CDK3/cyclin E2) [%] | remaining activity at 0.1 µM ([7]; CDK3/cyclin E) [%] | remaining activity at 0.1 µM [8] [%] | remaining activity at 0.1 µM [9] [%] | remaining activity at 0.1 µM [10] [%] | remaining activity at 0.1 µM [11] [%] | remaining activity at 0.1 µM [12] [%] | remaining activity at 0.1 µM [13] [%] | remaining activity at 0.1 µM [14] [%] | remaining activity at 0.1 µM [15] [%] | remaining activity at 0.1 µM [16] [%] | remaining activity at 0.1 µM ([17]; CDK1/cyclin A) [%] | remaining activity at 0.1 µM ([17]; CDK1/cyclin B) [%] | remaining activity at 0.1 µM ([17]; CDK1/cyclin E) [%] | further results
CN1CCN(Cc2ccc(-c3cnc4[nH]cc(-c5ccc6[nH]ccc6c5)c4c3)cc2)CC1 [Compound 1, 3-(1H-Indol-5-yl)-5-(4-((4-methylpiperazin-1-yl)methyl)phenyl)-1H-pyrrolo[2,3-b]pyridine, reference compound] | 80.4 | 90.7 | 95.8 | 100 | 96.8 | 88.6 | 92.6 | 92.9 | 94.9 | 52.4 | 85.4 | 107 | 89 | 63.6 | 19.4 | 92.1 | 22.6 | 95.1 | 96.5 | 98.7 | remaining activity at 0.1 µM [18]: 93.2%
OCCN1CCN(Cc2ccc(-c3cnc4[nH]cc(-c5cccc(Cl)c5)c4c3)cc2)CC1 [Compound 12k, 2-(4-(4-(3-(3-Chlorophenyl)-1H-pyrrolo[2,3-b]pyridin-5-yl)benzyl)piperazin-1-yl)ethan-1-ol] | 36 | 77.3 | 88.3 | 99.4 | 97.1 | 79.1 | 90.2 | 97 | 101 | 40.7 | 90 | 92 | 106 | 10.2 | 52.2 | 96.3 | -0.71 | 79.9 | 84.9 | 91.1 | fold change in GCK activity following 12k exposure relative to 1 ([13]; 0.025 μM): 6.22 fold; fold change in MINK1 activity following 12k exposure relative to 1 ([16]; 0.025 μM): 22.56 fold; remaining activity at 0.1 µM [18]: 83.5%
